Data set [1] relates to Trypsin, Chymotrypsin and Proteinase K. Description: Proteolytic stability (incubation with proteases or in Human Serum). It is filed as in vitro ADME. The protocol:
Proteolytic stability studies were performed by peptides incubation with proteases (such as Trypsin, Chymotrypsin and Proteinase K) or in Human Serum as described earlier (See Karoyan et al. J. Med. Chem. 2016).

In data set [2] the test system is B-chronic lymphocytic leukemia (CLL) primary cells. Conditions: cited from earlier work; for induction of caspase-independent PCD: soluble peptide, CLL primary cells.
Another data set has as its system HCT-116 cells. The class given is cell-based, human. Conditions: 2 h; for Early Apoptosis, Mean (%) / Late apoptosis, Mean (%): HCT-116 cells; for Viable, Mean (%): human. Here is the method: 2.2.2. Cell Death Analysis by Flow Cytometry
To detect possible apoptotic processes, cells were seeded in 35 mm dishes and cultured in media containing each tested cyclic peptide for 2 hours following procedure A or B.
Procedure B: Peptides were incubated for 2 hours on HCT-116 cells. Superkiller Trail (ALX-201-115C-010) was used as a positive pro-apoptotic control. Cells were analyzed by cytofluorometry using FITC Annexin V apoptosis detection kit with 7-AAD from BIOLEGEND (BLE640922).

The test system of data set [3] is MCF-7, HCT-116, BxPC3 and A549 cancer cells. In words: Cell viability and proliferation of tumor cells (cytotoxic assay and direct cell counting). The class given is cell-based, human. Conditions: 2 hours, 10 to 50 μM peptide concentration. The protocol:
The effects of several cyclic peptides of the invention on the proliferation of tumor cells were evaluated on 5 cell lines (MCF-7, human breast cancer cells; HCT-116, human colon cancer cells; BxPC3, human pancreas cancer cells and A549, human lung cancer cells) by cytotoxic assay and by counting directly the number of cells.
Those cyclic peptides were dissolved in DMSO at the following concentrations: 0, 5, 10, 25, 50 and 100 μM.
Culture media used for these assays are: EMEM=10% SVF for MCF-7 and Wi38; RPMI […] SVF for HCT-116 and BxPC3 and F-12K=10% SVF for A549.
500 cells were seeded in 96-well plates, incubated at 37° C. for 24 hours, and treated by the cyclic peptides at the different concentrations and controls for 2 h.

[4] abbreviates: peptide concentration 12.5 (μM).

Like-named read-outs stand apart in the source and are kept apart here. Residues, ends and D or L forms follow the SMILES beside them.

In the case of `CC(C)C[C@@H]1NC(=O)[C@@H]2CCCN2C(=O)[C@H]2CCCN2C(=O)[C@H](Cc2c[nH]c3ccccc23)NC(=O)[C@H](CCCCN)NC(=O)[C@H](C(C)C)NC(=O)[C@H](C(C)C)NC(=O)[C@H](Cc2ccc(O)cc2)NC(=O)[C@H](Cc2ccccc2)NC(=O)[C@H](C(C)C)NC(=O)[C@H](C(C)C)NC(=O)[C@H](CCCCN)NC(=O)[C@H](C(C)C)NC(=O)[C@H](CO)NC1=O` [PKD10, —F—Y—V—V—K—W—p—P—L—S—V—K—V—V—] (HELM PEPTIDE1{L.S.V.K.V.V.F.Y.V.V.K.W.[dP].P}$PEPTIDE1,PEPTIDE1,1:R1-14:R2$$$V2.0), the stability toward proteases result in data set [1] is “fully stable”.

For “K-RFYVVMWK-K (KRFYVVMWKK; listed as Homo sapiens) [Peptide 4N1K, soluble decapeptide that mimics the C-terminal domain of TSP-1]”, in data set [2] (CD47 ligation), the “selective elimination of leukemic B-cells versus healthy B-lymphocytes or resting normal B-cells from CLL patients” value was “specifically eliminates leukemic B-cells”. Also, the “induction of caspase-independent PCD” value in data set [2] is “induces caspase-independent PCD”.

For `CSCC[C@@H]1NC(=O)[C@H](C(C)C)NC(=O)[C@H](C(C)C)NC(=O)[C@H](Cc2ccc(O)cc2)NC(=O)[C@H](Cc2ccccc2)NC(=O)[C@H](CCCNC(=N)N)NC(=O)[C@H](CO)NC(=O)[C@H](CO)NC(=O)[C@H](CC(N)=O)NC(=O)[C@H](C(C)C)NC(=O)[C@H](C(C)C)NC(=O)[C@H](CCCCN)NC(=O)[C@H](C(C)C)NC(=O)[C@H](C)NC(=O)[C@H](CC(C)C)NC(=O)CNC(=O)[C@@H]2CCCN2C(=O)[C@H]2CCCN2C(=O)[C@H](CCCCN)NC(=O)[C@H](Cc2c[nH]c3ccccc23)NC1=O` [PKTD10-3, —S—R—F—Y—V—V—M—W—K—p—P—G—L—A—V—K—V—V—N—S—] (HELM PEPTIDE1{S.R.F.Y.V.V.M.W.K.[dP].P.G.L.A.V.K.V.V.N.S}$PEPTIDE1,PEPTIDE1,1:R1-20:R2$$$V2.0), the “Early Apoptosis, Mean (%)” value with HCT-116 cells (setting [4]) was determined as 8.17%; in the data set on HCT-116 cells (peptide concentration 25 (μM)), 13.16%; in the data set on HCT-116 cells (peptide concentration 50 (μM)), 13.13%. The figures for the “Late apoptosis, Mean (%)” value in the data set with HCT-116 cells (setting [4]), in the data set on HCT-116 cells (peptide concentration 25 (μM)) and with HCT-116 cells (peptide concentration 50 (μM)) were 4.35%, 7.06% and 6.85%, respectively. Also, the “Viable, Mean (%)” value with HCT-116 cells (12.5 μM) is reported as 86.83%; in the data set with HCT-116 cells (25 μM), 79.30%; in the data set on HCT-116 cells (50 μM), 79.67%. For the same molecule, the “viability in all cell strains” value in data set [3] is “dose-dependent viability decrease”.

Take `CSCC[C@@H]1NC(=O)[C@H](C(C)C)NC(=O)[C@H](C(C)C)NC(=O)[C@H](Cc2ccc(O)cc2)NC(=O)[C@H](Cc2ccccc2)NC(=O)[C@H](C(C)C)NC(=O)[C@H](C(C)C)NC(=O)[C@H](CCCCN)NC(=O)[C@H](C(C)C)NC(=O)[C@H](CO)NC(=O)[C@H](CC(C)C)NC(=O)[C@@H]2CCCN2C(=O)[C@H]2CCCN2C(=O)[C@H](Cc2c[nH]c3ccccc23)NC1=O` [PKD8, —F—Y—V—V—M—W—p—P—L—S—V—K—V—V—] (HELM PEPTIDE1{L.S.V.K.V.V.F.Y.V.V.M.W.[dP].P}$PEPTIDE1,PEPTIDE1,1:R1-14:R2$$$V2.0): the stability toward proteases entry in data set [1] is on record as “fully stable”.

`CSCC[C@@H]1NC(=O)[C@H](C(C)C)NC(=O)[C@H](C(C)C)NC(=O)[C@H](Cc2ccc(O)cc2)NC(=O)[C@H](Cc2ccccc2)NC(=O)[C@H](CCCNC(=N)N)NC(=O)[C@H](CO)NC(=O)[C@H](CO)NC(=O)[C@H](CC(N)=O)NC(=O)[C@H](C(C)C)NC(=O)[C@H](C(C)C)NC(=O)[C@H](CCCCN)NC(=O)[C@H](C)NC(=O)[C@H](CO)NC(=O)[C@H](CC(C)C)NC(=O)CNC(=O)[C@@H]2CCCN2C(=O)[C@H]2CCCN2C(=O)[C@H](CCCCN)NC(=O)[C@H](Cc2c[nH]c3ccccc23)NC1=O` [PKTD10-4, —S—R—F—Y—V—V—M—W—K—p—P—G—L—S—A—K—V—V—N—S—] (HELM PEPTIDE1{S.R.F.Y.V.V.M.W.K.[dP].P.G.L.S.A.K.V.V.N.S}$PEPTIDE1,PEPTIDE1,1:R1-20:R2$$$V2.0): the results for the “Early Apoptosis, Mean (%)” value in the data set with HCT-116 cells (setting [4]), with HCT-116 cells (peptide concentration 25 (μM)) and with HCT-116 cells (peptide concentration 50 (μM)) were 9.27%, 11.91% and 15.68%, respectively. The “Late apoptosis, Mean (%)” value with HCT-116 cells (setting [4]) is 4.39%; in the data set on HCT-116 cells (peptide concentration 25 (μM)) it was 5.54%; with HCT-116 cells (peptide concentration 50 (μM)) it was 7.53%. The entries for the “Viable, Mean (%)” value in the data set with HCT-116 cells (12.5 μM), with HCT-116 cells (25 μM) and in the data set on HCT-116 cells (50 μM) were 85.90%, 82.41% and 76.52%, respectively. In addition, the “viability in all cell strains” value in data set [3] is “dose-dependent viability decrease”.

In the case of “KRFYGGMWKK [Peptide 4NGG, linear negative control peptide, 4N1K mutated in two amino acids]”, the “induction of caspase-independent PCD” value in data set [2] is on record as “unable to induce PCD”.

As to `CSCC[C@@H]1NC(=O)[C@H](C(C)C)NC(=O)[C@H](C(C)C)NC(=O)[C@H](Cc2ccc(O)cc2)NC(=O)[C@H](Cc2ccccc2)NC(=O)[C@H](CCCNC(=N)N)NC(=O)[C@H](CC(N)=O)NC(=O)[C@H](C(C)C)NC(=O)[C@H](C(C)C)NC(=O)[C@H](CCCCN)NC(=O)[C@H](C(C)C)NC(=O)[C@H](CO)NC(=O)[C@H](CC(C)C)NC(=O)CNC(=O)[C@H](CO)NC(=O)[C@@H]2CCCN2C(=O)[C@H]2CCCN2C(=O)[C@H](CCC(N)=O)NC(=O)[C@H](CCCCN)NC(=O)[C@H](Cc2c[nH]c3ccccc23)NC1=O` [PKTD12, —R—F—Y—V—V—M—W—K—Q—p—P—S—G—L—S—V—K—V—V—N—] (HELM PEPTIDE1{R.F.Y.V.V.M.W.K.Q.[dP].P.S.G.L.S.V.K.V.V.N}$PEPTIDE1,PEPTIDE1,1:R1-20:R2$$$V2.0), the “Early Apoptosis, Mean (%)” value is 5.78% in the data set on HCT-116 cells (setting [4]), 7.15% in the data set on HCT-116 cells (peptide concentration 25 (μM)) and 19.16% with HCT-116 cells (peptide concentration 50 (μM)). Further, the “Late apoptosis, Mean (%)” value with HCT-116 cells (setting [4]) is 3.11%; in the data set with HCT-116 cells (peptide concentration 25 (μM)) it was 3.26%; with HCT-116 cells (peptide concentration 50 (μM)), 6.80%. The “Viable, Mean (%)” value in the data set with HCT-116 cells (12.5 μM) is listed as 90.87%; with HCT-116 cells (25 μM) it was 89.42%; in the data set on HCT-116 cells (50 μM), 73.78%. The “viability in all cell strains” value in data set [3] is “dose-dependent viability decrease”.

With `CCCC[C@@H]1NC(=O)[C@H](C(C)C)NC(=O)[C@H](C(C)C)NC(=O)[C@H](Cc2ccc(O)cc2)NC(=O)[C@H](Cc2ccccc2)NC(=O)[C@H](C(C)C)NC(=O)[C@H](C(C)C)NC(=O)[C@H](CCCCN)NC(=O)[C@H](C(C)C)NC(=O)[C@H](CO)NC(=O)[C@H](CC(C)C)NC(=O)[C@@H]2CCCN2C(=O)[C@H]2CCCN2C(=O)[C@H](Cc2c[nH]c3ccccc23)NC1=O` [PKD9, —F—Y—V—V—X—W—p—P—L—S—V—K—V—V— X = NLe] (HELM PEPTIDE1{L.S.V.K.V.V.F.Y.V.V.[Nle].W.[dP].P}$PEPTIDE1,PEPTIDE1,1:R1-14:R2$$$V2.0), in data set [1], the stability toward proteases result is on record as “fully stable”.
